One test addresses T1, Axl (Homo sapiens, UniProt P30530).
T1 sequence (P30530 26-894): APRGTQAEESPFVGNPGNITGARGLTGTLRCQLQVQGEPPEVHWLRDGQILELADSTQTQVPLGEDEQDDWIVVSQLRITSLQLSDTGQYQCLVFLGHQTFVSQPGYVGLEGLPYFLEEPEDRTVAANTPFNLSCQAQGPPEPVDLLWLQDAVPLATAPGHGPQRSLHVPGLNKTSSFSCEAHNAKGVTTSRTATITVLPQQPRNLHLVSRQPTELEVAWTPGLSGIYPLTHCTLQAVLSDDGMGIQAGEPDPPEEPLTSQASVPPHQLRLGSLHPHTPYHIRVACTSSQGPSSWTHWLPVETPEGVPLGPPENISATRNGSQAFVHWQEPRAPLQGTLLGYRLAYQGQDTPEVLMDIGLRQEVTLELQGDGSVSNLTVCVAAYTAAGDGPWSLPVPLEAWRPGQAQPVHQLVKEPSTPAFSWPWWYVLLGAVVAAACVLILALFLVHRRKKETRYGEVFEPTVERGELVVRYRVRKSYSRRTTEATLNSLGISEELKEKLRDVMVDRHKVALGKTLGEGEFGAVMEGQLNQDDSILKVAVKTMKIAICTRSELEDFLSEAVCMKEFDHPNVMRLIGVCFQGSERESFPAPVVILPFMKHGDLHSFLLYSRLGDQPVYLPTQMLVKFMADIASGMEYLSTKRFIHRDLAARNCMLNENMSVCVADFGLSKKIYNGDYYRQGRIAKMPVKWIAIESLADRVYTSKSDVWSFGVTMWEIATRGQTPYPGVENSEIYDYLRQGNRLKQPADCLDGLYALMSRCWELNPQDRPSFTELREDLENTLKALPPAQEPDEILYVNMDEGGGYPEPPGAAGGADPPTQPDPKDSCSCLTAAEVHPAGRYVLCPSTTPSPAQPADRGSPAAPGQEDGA
The test can be described thus: LanthaScreen Eu kinase binding assay for Axl. The conditions noted are these: read-out: Axl kinase binding activity (Kd). As to the method:
(§1) LanthaScreen® Eu Kinase Binding assays were conducted at Life Technologies using the manufacturer's specifications for each kinase indicated.
(§2) Briefly, the principle behind this assay is based upon the binding and displacement of an Alexa Fluor 647-labeled tracer to the kinase of interest. Binding of the tracer to the kinase is detected using an EU-labeled anti-tag antibody. Simultaneous binding of both the tracer and antibody to the kinase gives rise to a FRET-signal. Binding of an inhibitor to the kinase competes for binding with the tracer, resulting in a loss of FRET-signal.
(§3) A given compound was diluted in DMSO to make a stock compound solution. The stock compound solution was serially diluted over eight steps in DMSO. Each diluted compound solution in DMSO was diluted in kinase buffer. Afterwards four kinds of working solution were prepared. First, Tracer-Working solution consists of Tracer 236 and Kinase Buffer. Second, Axl, Mer, Tyro3 or Met/anti-GST-AB-Working solution contained one of the kinases Axl, and Mer or anti-GST-AB (=anti glutathione-S-transferase antibody) in Kinase Buffer. Third, anti-GST-AB-Working solution was made with anti-GST-AB and Kinase Buffer. Last, in the DMSO-Working solution DMSO was added to Kinase Buffer to a final concentration to 3%. Each of the four kinds of working solutions were separately added to the assay plate and then incubated for 1 h at room temperature. After incubation, the assay plate was measured with respect to the FRET-Signal with the EnVision (Perkin Elmer) using the program LanthaHTRF-Assay. Data evaluation was done in the Quattro Workflow software. Kd (the equilibrium dissociation constant) values were calculated relative to vehicle (DMSO) control wells.

The target in a further test is T2, Mer (Homo sapiens, UniProt Q12866).
T2 construct: purchased Life Technologies
T2 sequence (Q12866 21-999): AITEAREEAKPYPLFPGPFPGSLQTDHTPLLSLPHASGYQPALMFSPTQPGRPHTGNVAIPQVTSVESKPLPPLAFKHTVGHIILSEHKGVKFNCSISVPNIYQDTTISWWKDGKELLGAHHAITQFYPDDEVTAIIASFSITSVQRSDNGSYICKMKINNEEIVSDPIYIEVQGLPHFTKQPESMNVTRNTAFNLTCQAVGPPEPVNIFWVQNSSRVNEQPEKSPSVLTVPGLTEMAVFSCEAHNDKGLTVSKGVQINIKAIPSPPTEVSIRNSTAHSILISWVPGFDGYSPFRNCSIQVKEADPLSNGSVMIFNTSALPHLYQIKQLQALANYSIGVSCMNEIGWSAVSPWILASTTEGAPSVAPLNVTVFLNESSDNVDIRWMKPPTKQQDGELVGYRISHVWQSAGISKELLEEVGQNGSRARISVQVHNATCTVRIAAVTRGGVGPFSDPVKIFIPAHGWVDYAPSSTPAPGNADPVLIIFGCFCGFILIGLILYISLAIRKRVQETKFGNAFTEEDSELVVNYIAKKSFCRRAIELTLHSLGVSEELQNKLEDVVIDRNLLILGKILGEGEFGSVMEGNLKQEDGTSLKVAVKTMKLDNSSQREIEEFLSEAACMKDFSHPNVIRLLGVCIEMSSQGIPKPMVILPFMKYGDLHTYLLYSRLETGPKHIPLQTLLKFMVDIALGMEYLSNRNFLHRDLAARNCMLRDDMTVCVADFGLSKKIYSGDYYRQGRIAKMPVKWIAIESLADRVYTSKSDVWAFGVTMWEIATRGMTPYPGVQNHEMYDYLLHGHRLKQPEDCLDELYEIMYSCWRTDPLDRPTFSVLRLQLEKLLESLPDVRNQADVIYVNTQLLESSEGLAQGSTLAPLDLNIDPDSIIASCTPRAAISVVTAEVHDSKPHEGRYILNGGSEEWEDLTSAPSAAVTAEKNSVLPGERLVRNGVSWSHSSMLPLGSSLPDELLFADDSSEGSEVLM
The test can be described thus: LanthaScreen Eu kinase binding assay for Mer. To be noted: read-out: Mer kinase binding activity (Kd). As to the method: as §1, §2, §3
In general terms: TR-FRET usually uses a lanthanide donor and a delayed reading to cut background.

Bounds are passed on as bounds.

In the case of `CCCn1cc(OCC2COC2)c(C(=O)Nc2ccc(Oc3ccnc4cc(OC)c(OC)cc34)cn2)n1` [Compound 106], the Kd on Axl and at Mer was under 100 nM in each case.
In the case of `COCCOc1cn(C2CC2)nc1C(=O)Nc1ccc(Oc2ccnc3cc(OC)c(OC)cc23)cn1` [Compound 107], the Kd on Axl and on Mer was under 100 nM in each case.
Take `COc1cc2nccc(Oc3ccc(NC(=O)c4nn(C5CC5)cc4OC(C)C)nc3)c2cc1OC` [Compound 108]: the Kd on Axl and at Mer was under 100 nM in each case.
Turning to `COc1cc2nccc(Oc3ccc(NC(=O)c4nn(C5CC5)cc4OCC(F)F)nc3)c2cc1OC` [Compound 109], the dissociation constant Kd on Axl and on Mer was under 100 nM throughout.
For `COc1cc2nccc(Oc3ccc(NC(=O)c4nn(C5CC5)cc4OCCF)nc3)c2cc1OC` [Compound 110], the Kd at Axl and at Mer was under 100 nM throughout.
Consider `COc1cc2nccc(Oc3ccc(NC(=O)c4nn(C5CC5)cc4OCC4CCC4)nc3)c2cc1OC` [Compound 111], for which the dissociation constant Kd on Axl and on Mer was under 100 nM in each case.
As to `COc1cc2nccc(Oc3ccc(NC(=O)c4nn(C5CC5)cc4OCC(F)(F)F)nn3)c2cc1OC` [Compound 112], the Kd on Axl and on Mer was under 100 nM throughout.
With `COc1cc2nccc(Oc3ccc(NC(=O)c4nn(C5CC5)cc4OCCF)nn3)c2cc1OC` [Compound 113], the dissociation constant Kd at Axl and on Mer was under 100 nM throughout.
For the compound `CCCn1cc(OCC(F)(F)F)c(C(=O)Nc2ccc(Oc3ccnc4cc(OC)c(OC)cc34)c(C(F)(F)F)c2)n1` [Compound 114], the Kd on Axl and on Mer was under 100 nM each time.
For the compound `COc1cc2nccc(Oc3ccc(NC(=O)c4nn(CCOC5CC5)cc4OCC(F)(F)F)c(F)c3)c2cc1OC` [Compound 115], the Kd at Axl and at Mer was under 100 nM each time.
For `COc1cc2nccc(Oc3ccc(NC(=O)c4nn(CCOC5CC5)cc4OCC(F)(F)F)cc3F)c2cc1OC` [Compound 116], the Kd on Axl and at Mer was under 100 nM throughout.
Turning to `COc1cc2nccc(Oc3ccc(NC(=O)c4nn(CCOC5CC5)cc4OCC(F)(F)F)cc3C)c2cc1OC` [Compound 117], the Kd on Axl and on Mer was under 100 nM throughout.
As to `COc1cc2nccc(Oc3ccc(NC(=O)c4nn(CCOC5CC5)cc4OCC(F)(F)F)cc3)c2cc1OC` [Compound 118], the Kd at Axl and at Mer was under 100 nM throughout.
Regarding `CNCCn1cc(OCC(F)(F)F)c(C(=O)Nc2ccc(Oc3ccnc4cc(OC)c(OC)cc34)cc2)n1` [Compound 119], the Kd on Axl and on Mer was 100 to 500 nM in each case.
For `COc1cc2nccc(Oc3ccc(NC(=O)c4nn(CCOC5CC5)cc4OCC(F)(F)F)nn3)c2cc1OC` [Compound 120], the Kd on Axl and at Mer was under 100 nM each time.
Consider `COc1cc2nccc(Oc3ccc(NC(=O)c4nn(C5CCCC5)cc4OCC(F)(F)F)nn3)c2cc1OC` [Compound 121], for which the Kd at Axl and on Mer was under 100 nM each time.
Turning to `COc1cc2nccc(Oc3ccc(NC(=O)c4nn(C5CCNC5)cc4OCC(F)(F)F)nn3)c2cc1OC` (stereo not drawn) [Compound 122], the dissociation constant Kd on Axl and on Mer was 100 to 500 nM each time.
`COc1cc2nccc(Oc3ccc(NC(=O)c4nn(CC5COC5)cc4OCC(F)(F)F)nn3)c2cc1OC` [Compound 123]: the Kd on Axl and on Mer was under 100 nM each time.
As to `COc1cc2nccc(Oc3ccc(NC(=O)c4nn(CC(C)C)cc4OCC(F)(F)F)nn3)c2cc1OC` [Compound 124], the Kd at Axl and on Mer was under 100 nM in each case.
`COc1cc2nccc(Oc3ccc(NC(=O)c4nn(CCN)cc4OCC(F)(F)F)nn3)c2cc1OC` [Compound 125]: the Kd at Axl and at Mer was at least 500 nM throughout.
Regarding `COCCn1cc(OCC(F)(F)F)c(C(=O)Nc2ccc(Oc3ccnc4cc(OC)c(OC)cc34)nn2)n1` [Compound 126], the Kd at Axl and at Mer was under 100 nM throughout.
`CNCCn1cc(OCC(F)(F)F)c(C(=O)Nc2ccc(Oc3ccnc4cc(OC)c(OC)cc34)nn2)n1` [Compound 127]: the Kd on Axl and on Mer was at least 500 nM throughout.
Regarding `COc1cc2nccc(Oc3ccc(NC(=O)c4nn(C5CCOC5)cc4OCC(F)(F)F)nn3)c2cc1OC` (stereo not drawn) [Compound 128], the Kd at Axl and on Mer was under 100 nM in each case.
In the case of `COc1cc2nccc(Oc3ccc(NC(=O)c4nn(CCO)cc4OCC(F)(F)F)cn3)c2cc1OC` [Compound 129], the Kd at Axl and on Mer was 100 to 500 nM each time.
In the case of `COc1cc2nccc(Oc3ccc(NC(=O)c4nn(CCOC5CC5)cc4OCC(F)(F)F)cn3)c2cc1OC` [Compound 130], the Kd on Axl and at Mer was under 100 nM each time.
As to `COc1cc2nccc(Oc3ccc(NC(=O)c4nn(C5CCCC5)cc4OCC(F)(F)F)cn3)c2cc1OC` [Compound 131], the Kd on Axl and at Mer was under 100 nM in each case.
As to `COc1cc2nccc(Oc3ccc(NC(=O)c4nn(C5CCNC5)cc4OCC(F)(F)F)cn3)c2cc1OC` (stereo not drawn) [Compound 132], the Kd on Axl and at Mer was at least 500 nM in each case.
Turning to `COc1cc2nccc(Oc3ccc(NC(=O)c4nn(C5CCN(C)C5)cc4OCC(F)(F)F)cn3)c2cc1OC` (stereo not drawn) [Compound 133], the Kd at Axl and at Mer was 100 to 500 nM each time.
Turning to `COc1cc2nccc(Oc3ccc(NC(=O)c4nn(CC5COC5)cc4OCC(F)(F)F)cn3)c2cc1OC` [Compound 134], the Kd at Axl and at Mer was under 100 nM each time.
With `COc1cc2nccc(Oc3ccc(NC(=O)c4nn(CCN)cc4OCC(F)(F)F)cn3)c2cc1OC` [Compound 135], the Kd at Axl and on Mer was at least 500 nM in each case.
Consider `COc1cc2nccc(Oc3ccc(NC(=O)c4nn(CC(C)O)cc4OCC(F)(F)F)cn3)c2cc1OC` (stereo not drawn) [Compound 136], for which the Kd on Axl and at Mer was under 100 nM in each case.
On to `CNCCn1cc(OCC(F)(F)F)c(C(=O)Nc2ccc(Oc3ccnc4cc(OC)c(OC)cc34)nc2)n1` [Compound 137], for which the Kd on Axl and on Mer was at least 500 nM throughout.
In the case of `COc1cc2nccc(Oc3ccc(NC(=O)c4nn(C5CCOC5)cc4OCC(F)(F)F)cn3)c2cc1OC` (stereo not drawn) [Compound 138], the Kd on Axl and at Mer was under 100 nM throughout.

The term Kd denotes the constant that tells how readily two partners part at equilibrium.

Source of the values: US12162858B2, “Quinoline derivatives as inhibitors of AXL/MER RTK and CSF1R” (QURIENT CO., LTD., priority 2018, dated 2024).
